Results reported in publication PMC6017931, “A Novel Class of Schistosoma mansoni Histone Deacetylase 8 (HDAC8) Inhibitors Identified by Structure-Based Virtual Screening and In Vitro Testing” (Molecules : A Journal of Synthetic Chemistry and Natural …, 2018).

Tests used:
smHDAC8 = target: T1, smHDAC8 (Schistosoma mansoni, UniProt A5H660); experiment: smHDAC8 in vitro inhibition assay; assay type: biochemical; conditions: for IC50: mean ± S.E., Fluor de Lys-HDAC8 substrate 50 µM, 90 min at 37 °C
T1 construct: made in house; host or cells: E. coli
T1 sequence (A5H660 1-440): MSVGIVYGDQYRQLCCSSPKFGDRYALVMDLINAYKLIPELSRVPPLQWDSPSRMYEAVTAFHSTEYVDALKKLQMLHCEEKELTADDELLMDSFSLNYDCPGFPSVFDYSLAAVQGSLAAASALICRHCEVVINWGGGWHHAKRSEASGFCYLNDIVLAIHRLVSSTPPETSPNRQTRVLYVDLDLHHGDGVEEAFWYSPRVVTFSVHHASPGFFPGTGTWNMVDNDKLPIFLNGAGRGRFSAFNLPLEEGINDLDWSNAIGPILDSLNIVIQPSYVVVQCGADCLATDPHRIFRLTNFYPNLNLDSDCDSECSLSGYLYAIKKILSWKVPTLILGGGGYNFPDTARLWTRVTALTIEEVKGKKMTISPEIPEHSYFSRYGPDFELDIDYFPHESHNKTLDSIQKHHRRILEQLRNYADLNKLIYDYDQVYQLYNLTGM
Method: The biological assay was carried out using purified smHDAC8 protein and the small molecule substrate Z(Tfa)Lys-AMC (ZMTFAL) as previously reported. To assess the selectivity, the selected compounds were further tested against the human orthologue hsHDAC8 as well as the major human HDAC isoforms (HDAC1 and -6) using an established in vitro assay.
Recombinant human HDAC1 and HDAC6 were purchased from BPS Bioscience. Recombinant human HDAC8 was expressed and purified as previously described. Recombinant smHDAC8 enzyme was produced in E. coli cells and purified by a method previously described by us. Inhibition assays of smHDAC8 and human HDACs were performed as already described in previous publications. Briefly, the commercial Fluor de Lys kit (BML-KI178) was used for testing inhibition of smHDAC8 and hsHDAC8. Test compounds, Fluor de Lys-HDAC8 substrate (50 µM) and enzyme were incubated for 90 min at 37 °C with subsequent addition of 50 μL Developer II (BML-KI176) and further incubation for 45 min at 30 °C. Fluorescence was measured in a plate reader (BMG Polarstar) with excitation at λ = 390 nm and emission at λ = 460 nm. Inhibition tests of human HDAC1 and 6 were conducted using ZMAL (Cbz-(Ac)Lys-AMC) as substrate and trypsin as a developer. […] Trichostatin A (2 µM) was used in both assays to stop the reaction. Fluorescence was measured similarly as mentioned above. IC50 values were determined with OriginPro (version 9.0.0, Northampton, MA, USA). IC50 Values in Table 1 are given as mean ± S.E.

S. mansoni schistosomula [1] = experiment: Apoptosis induction in schistosomula (TUNEL); assay type: cell-based, Schistosoma mansoni; conditions: 100 µM, after 3 days
Method: The compound J1036 induced dose-dependent apoptosis in the infective larval stage (schistosomula) of S. mansoni, affecting 67% of the larvae after 3 days at a dose of 100 µM (Figure 4), whereas a polar hydroxamate derivative (J1038) identified by a previous virtual screening was ineffective in the same assay (data not shown here). […]. Although we cannot directly correlate the inhibitory activity on smHDAC8 with the lethal effect of J1036 on schistosomula, the high level of expression of this class I HDAC [21] in the parasite, and its validation as a stand-alone target by transcript knockdown, mean that its inhibition is sufficient to induce the effects observed.
Figure 4 J1036 induces apoptosis in S. mansoni schistosomula in vitro. (A) Dose-dependent induction of apoptosis determined by dUTP nick end labeling (TUNEL) shown as the percentage of parasites positively labeled; (B) TUNEL staining of schistosomula treated with 100 µM J1036 for 3 days. Parasites were counterstained using 4′,6-Diamidino-2-Phenylindole (DAPI).
The capacity of compounds J1036 and J1038 to induce apoptosis in S. mansoni schistosomula was measured using dUTP nick end labelling (TUNEL) and the In Situ Cell Death Detection Kit TMR (Roche Applied Science, Penzberg, Germany) exactly as previously described.

hsHDAC1 = target: T2, hsHDAC1 (Homo sapiens, UniProt Q13547); experiment: hsHDAC1 in vitro inhibition assay; assay type: biochemical; conditions: mean ± S.E.; ZMAL 10.5 µM, 90 min at 37 °C
T2 construct: purchased BPS Bioscience
T2 sequence (Q13547 whole entry): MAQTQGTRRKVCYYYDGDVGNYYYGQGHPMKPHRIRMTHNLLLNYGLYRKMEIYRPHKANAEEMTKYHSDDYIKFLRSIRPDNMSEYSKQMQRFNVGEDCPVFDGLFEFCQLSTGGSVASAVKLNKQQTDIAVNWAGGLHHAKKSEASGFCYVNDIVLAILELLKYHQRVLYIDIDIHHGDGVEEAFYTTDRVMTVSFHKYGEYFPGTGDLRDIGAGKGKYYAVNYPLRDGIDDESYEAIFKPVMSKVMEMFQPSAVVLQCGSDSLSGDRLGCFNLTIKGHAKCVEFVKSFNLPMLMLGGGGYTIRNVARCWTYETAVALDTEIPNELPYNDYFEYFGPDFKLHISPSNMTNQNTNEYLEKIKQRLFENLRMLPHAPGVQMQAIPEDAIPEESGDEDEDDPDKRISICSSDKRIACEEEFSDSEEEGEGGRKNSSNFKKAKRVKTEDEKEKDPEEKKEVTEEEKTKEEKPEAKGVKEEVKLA
Method: (§1) The biological assay was carried out using purified smHDAC8 protein and the small molecule substrate Z(Tfa)Lys-AMC (ZMTFAL) as previously reported. To assess the selectivity, the selected compounds were further tested against the human orthologue hsHDAC8 as well as the major human HDAC isoforms (HDAC1 and -6) using an established in vitro assay. […] Recombinant human HDAC1 and HDAC6 were purchased from BPS Bioscience. Recombinant human HDAC8 was expressed and purified as previously described. Recombinant smHDAC8 enzyme was produced in E. coli cells and purified by a method previously described by us. Inhibition assays of smHDAC8 and human HDACs were performed as already described in previous publications. Briefly, the commercial Fluor de Lys kit (BML-KI178) was used for testing inhibition of smHDAC8 and hsHDAC8. Test compounds, Fluor de Lys-HDAC8 substrate (50 µM) and enzyme were incubated for 90 min at 37 °C with subsequent addition of 50 μL Developer II (BML-KI176) and further incubation for 45 min at 30 °C. Fluorescence was measured in a plate reader (BMG Polarstar) with excitation at λ = 390 nm and emission at λ = 460 nm. Inhibition tests of human HDAC1 and 6 were conducted using ZMAL (Cbz-(Ac)Lys-AMC) as substrate and trypsin as a developer. […] Trichostatin A (2 µM) was used in both assays to stop the reaction. Fluorescence was measured similarly as mentioned above. IC50 values were determined with OriginPro (version 9.0.0, Northampton, MA, USA). IC50 Values in Table 1 are given as mean ± S.E.

hsHDAC6 = target: T3, hsHDAC6 (Homo sapiens, UniProt Q9UBN7); experiment: hsHDAC6 in vitro inhibition assay; assay type: biochemical; conditions: for IC50: mean ± S.E., ZMAL 10.5 µM, 90 min at 37 °C
T3 construct: purchased BPS Bioscience
T3 sequence (Q9UBN7 1-1215): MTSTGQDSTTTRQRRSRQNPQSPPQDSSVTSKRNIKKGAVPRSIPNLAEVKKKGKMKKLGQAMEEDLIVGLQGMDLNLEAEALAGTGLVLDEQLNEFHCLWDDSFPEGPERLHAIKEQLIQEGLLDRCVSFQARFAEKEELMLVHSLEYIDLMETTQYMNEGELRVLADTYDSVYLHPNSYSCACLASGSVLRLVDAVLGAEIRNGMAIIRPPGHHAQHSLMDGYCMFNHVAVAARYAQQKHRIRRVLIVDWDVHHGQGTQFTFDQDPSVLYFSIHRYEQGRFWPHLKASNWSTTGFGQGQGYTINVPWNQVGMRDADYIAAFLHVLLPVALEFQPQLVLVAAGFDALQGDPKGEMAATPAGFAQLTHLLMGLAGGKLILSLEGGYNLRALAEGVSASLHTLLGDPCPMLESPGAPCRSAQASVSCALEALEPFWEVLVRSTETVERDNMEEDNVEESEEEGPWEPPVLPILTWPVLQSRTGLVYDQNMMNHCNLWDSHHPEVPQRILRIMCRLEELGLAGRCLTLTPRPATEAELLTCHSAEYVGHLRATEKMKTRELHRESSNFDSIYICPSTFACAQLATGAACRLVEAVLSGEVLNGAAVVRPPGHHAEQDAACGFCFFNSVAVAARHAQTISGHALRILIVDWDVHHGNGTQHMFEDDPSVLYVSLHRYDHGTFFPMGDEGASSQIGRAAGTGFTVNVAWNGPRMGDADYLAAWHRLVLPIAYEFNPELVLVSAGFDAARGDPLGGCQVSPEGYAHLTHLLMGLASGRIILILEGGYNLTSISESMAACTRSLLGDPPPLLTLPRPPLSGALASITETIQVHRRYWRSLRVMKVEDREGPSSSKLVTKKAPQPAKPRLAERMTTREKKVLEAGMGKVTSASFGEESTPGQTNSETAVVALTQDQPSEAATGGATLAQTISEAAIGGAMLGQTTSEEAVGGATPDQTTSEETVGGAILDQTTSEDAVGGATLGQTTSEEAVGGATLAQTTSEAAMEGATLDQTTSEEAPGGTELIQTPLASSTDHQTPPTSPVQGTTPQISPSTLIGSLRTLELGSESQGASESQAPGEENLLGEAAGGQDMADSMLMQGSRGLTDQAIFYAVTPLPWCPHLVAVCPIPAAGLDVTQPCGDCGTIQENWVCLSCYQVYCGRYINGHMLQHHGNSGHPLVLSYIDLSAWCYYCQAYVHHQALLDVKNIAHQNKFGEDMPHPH
Method: as §1

hsHDAC8 = target: T4, hsHDAC8 (Homo sapiens, UniProt Q9BY41); experiment: hsHDAC8 in vitro inhibition assay; assay type: biochemical; conditions: mean ± S.E.; Fluor de Lys-HDAC8 substrate 50 µM, 90 min at 37 °C
T4 construct: made in house
T4 sequence (Q9BY41 1-377): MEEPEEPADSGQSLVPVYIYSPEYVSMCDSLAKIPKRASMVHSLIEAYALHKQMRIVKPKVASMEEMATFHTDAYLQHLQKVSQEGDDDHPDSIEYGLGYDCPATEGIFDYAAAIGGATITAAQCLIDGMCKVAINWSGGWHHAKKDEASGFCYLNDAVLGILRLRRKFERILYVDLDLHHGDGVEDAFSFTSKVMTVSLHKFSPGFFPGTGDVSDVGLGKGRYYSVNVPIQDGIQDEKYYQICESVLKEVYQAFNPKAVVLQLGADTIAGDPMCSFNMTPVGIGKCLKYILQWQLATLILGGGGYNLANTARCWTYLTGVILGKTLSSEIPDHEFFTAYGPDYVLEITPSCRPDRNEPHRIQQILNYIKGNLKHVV
Method: as §1

S. mansoni schistosomula [2] = system: S. mansoni schistosomula; parameters: method as in PMID 24086136; conditions: at 100 µM; cited from earlier work

With CCCCCC(=O)N(O)C1CC(=O)N(c2ccc(Cl)cc2)C1=O (stereo not shown) [J1036] the IC50 (smHDAC8) was 4.4 ± 0.17 µM, the “apoptosis, percentage of larvae affected (TUNEL positive)” value (S. mansoni schistosomula [1]) was 67% and the IC50 (hsHDAC1) was 6.76 ± 0.97 µM. It also gave an IC50 (hsHDAC6) of 5.02 ± 0.31 µM and an IC50 (hsHDAC8) of 0.49 ± 0.18 µM.
With CCCCC(=O)N(O)C1CC(=O)N(c2ccccc2)C1=O (stereo not shown) [J1057] the IC50 (smHDAC8) was 13.2 ± 1.85 µM, the IC50 (hsHDAC1) was 42.1 ± 2.2 µM and the IC50 (hsHDAC6) was 6.2 ± 0.34 µM. The IC50 (hsHDAC8) was 2.62 ± 0.19 µM.
CCCCCC(=O)N(O)C1CC(=O)N(c2ccccc2)C1=O (stereo not shown) [J1058] showed an IC50 (smHDAC8) of 20.3 ± 2.78 µM, an IC50 (hsHDAC1) of 26 ± 2.4 µM and an IC50 (hsHDAC6) of 6.2 ± 0.41 µM. The IC50 (hsHDAC8) was 3.99 ± 0.74 µM.
In the case of CCCCCCC(=O)N(O)C1CC(=O)N(c2ccccc2)C1=O (stereo not shown) [J1060], the IC50 (smHDAC8) is reported as 11.5 ± 0.91 µM, the IC50 (hsHDAC1) is reported as 5 ± 0.42 µM and the “inhibitory activity against HDAC6 (in words)” value (“inhibitory activity” below) (hsHDAC6) is reported as “submicromolar”. The IC50 (hsHDAC6) was 0.86 ± 0.12 µM and the IC50 (hsHDAC8) was 1.8 ± 0.24 µM.
With CCCCCCC(=O)N(O)C1CC(=O)N(c2ccc(Cl)cc2)C1=O (stereo not shown) [J1061] the IC50 (smHDAC8) was 5.5 ± 0.7 µM, the IC50 (hsHDAC1) was 3.98 ± 0.45 µM and the IC50 (hsHDAC6) was 2.65 ± 0.29 µM. For the same molecule, the IC50 (hsHDAC8) was 7.69 ± 3.3 µM.
With CCCCCCC(=O)N(O)C1CC(=O)N(c2ccc(Br)cc2)C1=O (stereo not shown) [J1063] the IC50 (smHDAC8) was 5.9 ± 1.6 µM, the IC50 (hsHDAC1) was 1.42 ± 0.13 µM and the “inhibitory activity” value (hsHDAC6) was “submicromolar”. The IC50 (hsHDAC6) was 0.77 ± 0.09 µM and the IC50 (hsHDAC8) was 7.72 ± 4.42 µM.
For CCCCCCC(=O)N(O)C1CC(=O)N(c2ccc(F)cc2)C1=O (stereo not shown) [J1064], the IC50 (smHDAC8) was 7.79 ± 0.28 µM, the IC50 (hsHDAC1) was 4.3 ± 0.46 µM and the “inhibitory activity” value (hsHDAC6) was “submicromolar”. For the same molecule, the IC50 (hsHDAC6) was 0.6 ± 0.12 µM and the IC50 (hsHDAC8) was 2.08 ± 0.34 µM.
CCCCCCC(=O)N(O)C1CC(=O)N(c2ccc(C)cc2)C1=O (stereo not shown) [J1065] gave an IC50 (smHDAC8) of 20.2 ± 2.7 µM, an IC50 (hsHDAC1) of 8.4 ± 0.28 µM and an IC50 (hsHDAC6) of 1.57 ± 0.37 µM. The IC50 (hsHDAC8) was 3.96 ± 0.6 µM.
For CCCCCCC(=O)N(O)C1CC(=O)N(c2cccc(Cl)c2C)C1=O (stereo not shown) [J1066], the inhibition at 25 µM (smHDAC8; at 25 µM) was 13%.
In the case of O=C(NO)c1sc2ccccc2c1Cl [J1075], the “apoptosis, percentage of larvae affected” value (S. mansoni schistosomula [2]) is listed as 54%.
In the case of O=C(CCCCCCC(=O)Nc1ccccc1)NO [SAHA], the “apoptosis, percentage of larvae affected” value (S. mansoni schistosomula [2]) is listed as 43%.
COc1ccc(C(=O)NO)cc1NC(=O)c1ccc(-c2ccccc2)cc1 [TH65, reference compound] showed an IC50 (smHDAC8) of 0.075 ± 0.025 µM, an IC50 (hsHDAC1) of 6.3 ± 2.1 µM and an IC50 (hsHDAC6) of 0.39 ± 0.002 µM. It also gave an IC50 (hsHDAC8) of 0.026 ± 0.017 µM.
